According to US20220324803A1 (Teon Therapeutics, Inc., priority 2019, published 2022):

Assays:
[1] = biological target: T1, human Prostanoid EP4 Receptor (EP4) (Homo sapiens, UniProt P35408); assay: Prostanoid EP4 binding assay (3H-prostaglandin E2 displacement, cell membranes); settings: HEK293 cell membranes with human EP4, 3H-prostaglandin E2, 24° C.
T1 construct: expressed in transfected cells; host or cells: HEK293 (G418 selection); membranes prepared by differential centrifugation
Procedure: HEK293 cells transfected with human Prostanoid EP4 Receptor (EP4) are maintained in DMEM supplemented with L-Glutamine, 10% FBS and 300 μg/ml G418. Cells are harvested and membranes prepared by differential centrifugation, following lysis of the cells in the presence of protease inhibitors, for use in the receptor binding assay. EP4 binding assay is performed in 50 mM HEPES pH7.4, 5 mM MgCl2, 1 mM CaCl2) and 0.2% BSA. Testing compounds are diluted with DMSO to make 8-point 4-fold serial dilution. Cell membrane homogenates are incubated at 24° C. with ^3H-prostaglandin E2 in the absence or presence of the testing compound in assay buffer. Nonspecific binding (Low control: LC) and total binding (High control: HC) are determined in the presence or absence of saturated cold ligand Prostaglandin E2 (PGE2). Specific binding is calculated by subtracting nonspecific binding from total binding. When binding assays are completed, the reaction mixture is filtered rapidly under vacuum through glass fiber filters (GF/C, Packard) presoaked with 0.5% BSA for at least 0.5 hour at room temperature and then washed for 4 times with cold wash buffer (50 mM HEPES pH7.4, 500 mM NaCl, 0.1% BSA) using a 96-sample Perkin Elmer Filtermate Harvester (Unifilter, Packard). The filters are dried for 1 hour at 50 degrees then counted for radioactivity in a scintillation counter using Perkin Elmer Microscint 20 cocktail. ^3H trapped on filter is counted using Perkin Elmer MicroBeta2 Reader. Inhibition is calculated using following equation: % Inhibition=(1−(Assay well−Average_LC)/(Average_HC−Average_LC))×100%. The results are expressed as a percent inhibition of the control radioligand specific binding. Data are analyzed and IC50 is calculated using GraphPad Prism 5 and the model “log(inhibitor) vs. response—Variable slope”. The binding affinity of the compounds is determined by using the Cheng and Prusoff equation Ki=IC50/(1+[radioligand]/Kd).

[2] = biological target: T1, human Prostanoid EP4 Receptor (EP4); assay: Prostanoid EP4 FLIPR assay (calcium flux, PGE2 addition); format: cell-based; settings: HEK293 cells transfected with human EP4, Fluo-4 calcium dye
Procedure: (§1) HEK293 cells transfected with human Prostanoid EP4 Receptor (EP4) or CHO cells transfected with human Prostanoid EP2 Receptor (EP2) are maintained in DMEM supplemented with L-Glutamine, 10% FBS and 300 μg/ml G418. Cells are plated at 20,000 cells/well in black 384-well Poly-D-Lysine protein coating plate and incubated at 37° C., 5% CO2 for 24 h. Prior to the assay, calcium-sensitive dye Fluo-4 Direct™ (Molecular Devices) is reconstituted according to manufacturer instructions. The reconstituted dye was diluted in assay buffer (1× HBSS, 20 mM HEPES, and 2.5 mM Probenicid, pH 7.4). Growth media is removed and 20 μl of this diluted dye is added to each well at a final concentration of 2 μM. Plates are incubated for 50 min at 37° C. 5% C02 and 10 min at RT after dye addition. Testing compounds are diluted with DMSO to make 10-point 4-fold serial dilution. After the pre-treatment incubation, fluorescence intensity is measured on a FlexStation II fluorometric imaging plate reader (Molecular Devices). Relative fluorescence units (RFU) are measured before (20 readings) and after (40 readings) the PGE2 addition for a total 60 sec read time (Excitation=485 nm, Emission=525 nm). Data are analyzed and IC50 is calculated using GraphPad Prism 5 and the model “log(inhibitor) vs. response—Variable slope”.
(§2) Illustrative data for representative compounds are described in Table 2.

[3] = biological target: T2, human Prostanoid EP2 Receptor (EP2) (Homo sapiens, UniProt P43116); assay: Prostanoid EP2 FLIPR assay (calcium flux, PGE2 addition); format: cell-based; settings: CHO cells transfected with human EP2, Fluo-4 calcium dye
T2 construct: expressed in transfected cells; host or cells: CHO (G418 selection)
T2 sequence (P43116 whole entry): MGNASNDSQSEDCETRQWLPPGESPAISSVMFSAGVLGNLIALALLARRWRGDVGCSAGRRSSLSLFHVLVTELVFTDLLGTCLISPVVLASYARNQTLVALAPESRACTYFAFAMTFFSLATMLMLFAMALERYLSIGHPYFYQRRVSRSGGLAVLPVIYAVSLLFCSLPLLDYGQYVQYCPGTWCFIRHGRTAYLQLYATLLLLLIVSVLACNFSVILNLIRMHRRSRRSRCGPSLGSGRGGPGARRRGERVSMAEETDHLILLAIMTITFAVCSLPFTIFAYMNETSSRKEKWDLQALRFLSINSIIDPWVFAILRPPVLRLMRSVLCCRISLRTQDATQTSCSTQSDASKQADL
Procedure: as §1, §2

T1 sequence (P35408 whole entry): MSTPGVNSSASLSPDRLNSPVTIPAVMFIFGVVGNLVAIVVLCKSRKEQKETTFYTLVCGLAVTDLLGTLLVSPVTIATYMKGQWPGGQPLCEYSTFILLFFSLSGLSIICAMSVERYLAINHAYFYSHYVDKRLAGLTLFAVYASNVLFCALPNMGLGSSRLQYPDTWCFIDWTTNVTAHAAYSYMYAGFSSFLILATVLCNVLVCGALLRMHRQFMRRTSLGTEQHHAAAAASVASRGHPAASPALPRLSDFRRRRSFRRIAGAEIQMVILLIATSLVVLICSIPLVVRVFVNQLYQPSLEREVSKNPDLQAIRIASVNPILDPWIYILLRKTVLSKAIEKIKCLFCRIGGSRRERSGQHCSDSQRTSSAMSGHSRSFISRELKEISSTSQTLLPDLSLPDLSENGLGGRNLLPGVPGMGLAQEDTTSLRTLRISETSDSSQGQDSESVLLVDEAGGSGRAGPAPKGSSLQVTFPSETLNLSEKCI

Ki [1] | IC50 [2] | IC50 [3] | Compound
< 100 nM | < 100 nM | > 1000 nM | O=C(NC1CC2(C1)CC(C(=O)O)C2)c1cnn2cccc(Cc3cccc(C(F)(F)F)c3)c12 (centres unmarked) [Compound 4, 2-[[4-[[3-(trifluoromethyl)phenyl]methyl]pyrazolo[1,5-a]pyridine-3-carbonyl]amino]spiro[3.3]heptane-6-carboxylic acid]
< 100 nM | < 100 nM | > 1000 nM | C[C@H](NC(=O)c1cnn2cccc(Cc3cc4ccccc4cn3)c12)c1ccc(C(=O)O)cc1 [Compound 12, 4-[(1S)-1-[[4-(3-isoquinolylmethyl)pyrazolo[1,5-a]pyridine-3-carbonyl]amino]ethyl]benzoic acid]
< 100 nM | < 100 nM | > 1000 nM | O=C(NC1CC2(C1)CC(C(=O)O)C2)c1n[nH]c2cccc(Cc3ccc(C(F)(F)F)cc3)c12 (centres unmarked) [Compound 8, 2-[[4-[[4-(trifluoromethyl)phenyl]methyl]-1H-indazole-3-carbonyl]amino]spiro[3.3]heptane-6-carboxylic acid]
< 100 nM | < 100 nM | > 1000 nM | O=C(O)CC12CC(NC(=O)c3cnn4cccc(Cc5ccc(C(F)(F)F)cc5)c34)(C1)C2 [Compound 15, 2-[3-[[4-[[4-(trifluoromethyl)phenyl]methyl]pyrazolo[1,5-a]pyridine-3-carbonyl]amino]-1-bicyclo[1.1.1]pentanyl]acetic acid]
< 100 nM | < 100 nM | > 1000 nM | O=C(N[C@H]1CC2(C1)C[C@H](C(=O)O)C2)c1cnn2cccc(Cc3ccc(C(F)(F)F)cc3)c12 (single isomer, unassigned) [Compound 14B, trans-2-[[4-[[4-(trifluoromethyl)phenyl]methyl]pyrazolo[1,5-a]pyridine-3-carbonyl]amino]spiro[3.3]heptane-6-carboxylic acid]
> 500 nM | 100 to 499 nM |  | O=C(O)CC12CC(NC(=O)c3cnn4cccc(Cc5cccc(C(F)(F)F)c5)c34)(C1)C2 [Compound 16, 2-[3-[[4-[[3-(trifluoromethyl)phenyl]methyl]pyrazolo[1,5-a]pyridine-3-carbonyl]amino]-1-bicyclo[1.1.1]pentanyl]acetic acid]
< 100 nM | < 100 nM | > 1000 nM | C[C@H](NC(=O)c1cnn2cccc(Cc3cccc(C(F)(F)F)c3)c12)c1ccc(C(=O)O)cc1 [Compound 3, 4-[(1S)-1-[[4-[[3-(trifluoromethyl)phenyl]methyl]pyrazolo[1,5-a]pyridine-3-carbonyl]amino]ethyl]benzoic acid]
100 to 499 nM | < 100 nM |  | O=C(O)CC12CC(NC(=O)c3n[nH]c4cccc(Cc5ccc(C(F)(F)F)cc5)c34)(C1)C2 [Compound 18, 2-(3-(4-(4-(trifluoromethyl)benzyl)-1H-indazole-3-carboxamido)bicyclo[1.1.1]pentan-1-yl)acetic acid]
< 100 nM | < 100 nM | > 1000 nM | O=C(NC1CC2(C1)CC(C(=O)O)C2)c1cnn2cccc(Cc3ccc(C(F)(F)F)cc3)c12 (centres unmarked) [Compound 2, 2-[[4-[[4-(trifluoromethyl)phenyl]methyl]pyrazolo[1,5-a]pyridine-3-carbonyl]amino]spiro[3.3]heptane-6-carboxylic acid]
< 100 nM | < 100 nM | > 1000 nM | C[C@H](NC(=O)c1cnn2cccc(Cc3ccc(C(F)(F)F)cc3)c12)c1ccc(C(=O)O)cc1 [Compound 1, 4-[(1S)-1-[[4-[[4-(trifluoromethyl)phenyl]methyl]pyrazolo[1,5-a]pyridine-3-carbonyl]amino]ethyl]benzoic acid]
< 100 nM | < 100 nM | > 1000 nM | CCn1nc(C(=O)N[C@@H](C)c2ccc(C(=O)O)cc2)c2c(Cc3ccc(C(F)(F)F)cc3)cccc21 [Compound 9, 4-[(1S)-1-[[1-ethyl-4-[[4-(trifluoromethyl)phenyl]methyl]indazole-3-carbonyl]amino]ethyl]benzoic acid]
100 to 499 nM | < 100 nM | > 1000 nM | CCn1nc2cccc(Cc3ccc(C(F)(F)F)cc3)c2c1C(=O)N[C@@H](C)c1ccc(C(=O)O)cc1 [Compound 10, 4-[(1S)-1-[[2-ethyl-4-[[4-(trifluoromethyl)phenyl]methyl]indazole-3-carbonyl]amino]ethyl]benzoic acid]
< 100 nM |  |  | C[C@@H](NC(=O)c1cnn2cccc(Cc3ccc(C(F)(F)F)cc3)c12)c1ccc(C(=O)O)cc1 [Compound 27, 4-[(1R)-1-[[4-[[4-(trifluoromethyl)phenyl]methyl]pyrazolo[1,5-a]pyridine-3-carbonyl]amino]ethyl]benzoic acid]
< 100 nM |  |  | CCn1nc(C(=O)N[C@H]2CC3(C2)C[C@H](C(=O)O)C3)c2c(Cc3ccc(C(F)(F)F)cc3)cccc21 (single isomer, unassigned) [Compound 11B, trans-2-[[1-ethyl-4-[[4-(trifluoromethyl)phenyl]methyl]indazole-3-carbonyl]amino]spiro[3.3]heptane-6-carboxylic acid]
< 100 nM |  |  | O=C(O)C[C@H]1CC[C@H](NC(=O)c2cn(CCF)c3nccc(Cc4ccc(C(F)(F)F)cc4)c23)CC1 [Compound 57, 2-[(1r,4r)-4-[[1-(2-fluoroethyl)-4-[[4-(trifluoromethyl)-phenyl]methyl]pyrrolo[2,3-b]pyridine-3-carbonyl]amino]cyclohexyl]acetic acid]
> 500 nM |  |  | O=C(Nc1ccc(C2(C(=O)O)CC2)cc1)c1cnn2cccc(Cc3ccc(C(F)(F)F)cc3)c12 [Compound 31, 1-[4-[[4-[[4-(trifluoromethyl)phenyl]methyl]pyrazolo[1,5-a]pyridine-3-carbonyl]amino]phenyl]cyclopropanecarboxylic acid]
> 500 nM |  |  | O=C(NCC12CCC(C(=O)O)(CC1)C2)c1cnn2cccc(Cc3ccc(C(F)(F)F)cc3)c12 [Compound 50, 4-[[[4-[[4-(trifluoromethyl)phenyl]methyl]pyrazolo[1,5-a]pyridine-3-carbonyl]amino]methyl]norbornane-1-carboxylic acid]
< 100 nM |  |  | CC(C)Cn1nc(C(=O)N[C@H]2CC3(C2)C[C@H](C(=O)O)C3)c2c(Cc3ccc(C(F)(F)F)cc3)cccc21 (stereo partly drawn) [Compound 24, trans-2-[[1-isobutyl-4-[[4-(trifluoromethyl)phenyl]methyl]indazole-3-carbonyl]amino]spiro[3.3]heptane-6-carboxylic acid]
< 100 nM |  |  | C[C@H](NC(=O)c1cn(CCF)c2nccc(Cc3ccc(C(F)(F)F)cc3)c12)c1ccc(C(=O)O)cc1 [Compound 47, 4-[(1S)-1-[[1-(2-fluoroethyl)-4-[[4-(trifluoromethyl)phenyl]methyl]pyrrolo[2,3-b]pyridine-3-carbonyl]amino]ethyl]benzoic acid]

Compound | Ki [1] | IC50 [2] | IC50 [3]
O=C(NC1CC2(C1)CC(C(=O)O)C2)c1cnn2cccc(Cc3cc4ccccc4cn3)c12 (single isomer, unassigned) [Compound 13A, cis-2-[[4-(3-isoquinolylmethyl)pyrazolo[1,5-a]pyridine-3-carbonyl]amino]spiro[3.3]heptane-6-carboxylic acid] | > 500 nM | 100 to 499 nM | 
CCn1cc(C(=O)N[C@H]2CC[C@H](CC(=O)O)CC2)c2c(Cc3ccc(C(F)(F)F)cc3)cccc21 [Compound 56, 2-[(1r,4r)-4-[[1-ethyl-4-[[4-(trifluoromethyl)phenyl]methyl]indole-3-carbonyl]amino]cyclohexyl]acetic acid] | < 100 nM |  | 
